In patent US10538561B2, “Peptide for treating inflammatory diseases” (priority 2015, dated 2020):
Counter-ions that a name gives are not always drawn. Like-named read-outs stand apart in the source and are kept apart here. Marks after values point to notes of the source that are not given here.

What was measured:
[1] = system: IL-6; assay: LPS+PMA stimulated IL-6 secretion in HaCaT; assay type: cell-based, Human
Method: (§1) Effect on pro-inflammatory cytokines against TNF-α/LPS+PMA stimulation: TNF-α; IFN-γ; TARC; TSLP; IL-6; IL-8: Cell lines: Human keratinocytes (HaCaT); test item (TI); IS181; experimental steps: pre-treatment of cells with TI for 2 hours; stimulation with TNF-α: 20 ng/ml; stimulation with LPS+PMA-10 μg/ml LPS+40 ng/ml PMA; supernatant collection for cytokine analysis after 24 hours; concentration range: 0.1 μg/ml-100 μg/ml (duplicate wells); cytokines: TNF-α; IFN-γ; TARC; TSLP; IL-6; IL-8. Method of estimating cytokines: ELISA; positive control: dexamethasone.
(§2) Cell line: HaCaT (Human Keratinocytes); TI Treatment regimen: Pretreatment for 2 h; TI Concentration range: 0.1 μg/ml-100 μg/ml (duplicate wells); TNF-α stimulation: 20 ng/ml; LPS+PMA stimulation: 10 μg/ml LPS+40 ng/ml PMA; Time point for supernatants collection: 24 h; Method of estimation: ELISA; Positive control: Dexamethasone

[2] = system: IL-8; assay: LPS+PMA stimulated IL-8 secretion in HaCaT; assay type: cell-based, Human; conditions: HaCaT + LPS + PMA
Method: as §1, §2

[3] = system: TNF-α; assay: LPS stimulated TNF-α secretion in RAW264.7; assay type: cell-based, Mouse; conditions: RAW264.7 + LPS
Method: (§3) Effect on pro-inflammatory cytokines against LPS stimulation: TNF-α; IL-6; IL-1-β: Cell lines: Murine macrophage cell line (RAW264.7); test item: IS181; experimental steps: pretreatment of cells with TI for 2 hours; stimulation with LPS (100 ng/ml) for 24 hours; supernatant collection for cytokine analysis; concentration range: o.1 μg/ml-500 μg/ml (duplicate wells); Cytokines: TNF-α; IL-6; IL-1-β; Method of estimating cytokines: ELISA; positive control: dexamethasone.
(§4) Cell line: RAW264.7 (Mouse macrophages); TI treatment regimen: Pretreatment for 2 h; TI Concentration range: 0.1 μg/ml-500 μg/ml (duplicate wells); LPS stimulation: 100 ng/ml; Time point for supernatants collection: 24 h; Method of estimation: ELISA; Positive control: Dexamethasone

[4] = system: IL-6; assay: LPS stimulated IL-6 secretion in RAW264.7; assay type: cell-based, Mouse; conditions: RAW264.7 + LPS
Method: as §3, §4

[5] = system: IFN-γ; assay: TNF-α stimulated IFN-γ secretion in HaCaT; assay type: cell-based, Human; conditions: HaCaT + TNF-α
Method: as §1, §2

[6] = system: TSLP; assay: LPS+PMA stimulated TSLP secretion in HaCaT; assay type: cell-based, Human; conditions: HaCaT + LPS + PMA
Method: as §1, §2

[7] = system: TARC; assay: TNF-α stimulated TARC secretion in HaCaT; assay type: cell-based, Human; conditions: HaCaT + TNF-α
Method: as §1, §2

[8] = system: IL-1-β; assay: LPS stimulated IL-1-β secretion in RAW264.7; assay type: cell-based, Mouse; conditions: RAW264.7 + LPS
Method: as §3, §4

[9] = system: TNF-α; assay: TNF-α level in TNF-α stimulated HaCaT; assay type: cell-based, Human
Method: as §1, §2

[10] = system: Human melanoma (SK-MEL-28); assay: Cell viability (MTT assay) in SK-MEL-28; assay type: cell-based; conditions: human
Method: (§5) Cell Lines/Cells: Human Keratinocytes (HaCaT); Human melanoma (SK-MEL-28); Human PBMCs. Test Item: IS181 Treatment regimen: Single addition—24 h, ^#Multiple additions (3)−72 h; Concentration range: 1 ng/ml-2 mg/ml (triplicate wells); Sera Condition: […] Method of estimation: MTT assay. […] Positive control: Triton-X-100, Doxorubicin Hydrochloride.

[11] = system: HaCaT (Human keratinocyte); assay: LDH enzyme release assay; assay type: cell-based
Method: (§6) For testing Apoptosis the Human Keratinocytes (HaCaT) cell line has been employed. The growth conditions are DMEM containing 1% FBS. […] Test concentration range is IS181 is tested at the highest (Qualitative analysis) effective concentrations selected on the basis of Quantitative JC-1 assay. The method of estimation is Mitochondrial membrane depolarization by JC-1 assay (Early apoptosis), LDH enzyme release (Necrosis). Treatment regimen & time points are JC-1 assay—Single addition, 20 h; LDH assay—Single addition, 24 h; Positive control: Triton-X-100, Doxorubicin-hydrochloride
End-point: Percentage increase in LDH activity in treated cells with respect to untreated.

[12] = system: HaCaT (Human keratinocyte) cell line; assay: Mitochondrial membrane potential by JC-1 assay; assay type: cell-based
Method: as §6
Quantitative effect on Δψm (Red fluorescence/Green fluorescence) in HaCaT cells post 20 hours of treatment. […] Evaluation (Qualitative and quantitative) of differential JC-1 staining in treated cells after 20 h on incubation with the test peptides.

[13] = system: Human Keratinocytes (HaCaT); assay: Cell viability (MTT assay) in HaCaT; assay type: cell-based; conditions: human
Method: as §5

[14] = system: Human Keratinocytes (HaCaT); assay: In vitro combination methotrexate and IS181 (MTT); conditions: for 50% Inhibition (concentration of MTX): 72 h
Method: (§7) The cells were then incubated for 72 hours. Percentage cytotoxicity was determined using MTT assay.

[15] = in vitro; conditions: human, HaCaT keratinocytes
Method: as §7

Compound: C[C@@H]1C[C@H]2[C@@H]3CCC4=CC(=O)C=C[C@]4(C)[C@@]3(F)[C@@H](O)C[C@]2(C)[C@@]1(O)C(=O)CO [Dexamethasone, reference compound]
- IL-6 % decrease with respect to LPS + PMA ([1]; 1 μM): 100.0%
- IL-6 Conc (pg/ml) ([1]; 1 μM): 0.0*** pg/ml
- IL-6 % decrease with respect to LPS + PMA ([1]; 10 μM): 94.8%
- IL-6 Conc (pg/ml) ([1]; 10 μM): 0.8*** pg/ml
- IL-6 % decrease with respect to LPS + PMA ([1]; 25 μM): 84.2%
- IL-6 Conc (pg/ml) ([1]; 25 μM): 2.4*** pg/ml
- IL-8 % decrease with respect to LPS + PMA ([2]; 1 μM): 65.1%
- IL-8 Conc (pg/ml) ([2]; 1 μM): 136.9*** pg/ml
- IL-8 % decrease with respect to LPS + PMA ([2]; 10 μM): 72.6%
- IL-8 Conc (pg/ml) ([2]; 10 μM): 107.4*** pg/ml
- IL-8 % decrease with respect to LPS + PMA ([2]; 25 μM): 67.9%
- IL-8 Conc (pg/ml) ([2]; 25 μM): 125.7*** pg/ml
- TNF-α % decrease with respect to LPS ([3]; 0.5 μg /ml): 54.1%
- TNF-α Conc (pg/ml) ([3]; 0.5 μg /ml): 451.7*** pg/ml
- TNF-α % decrease with respect to LPS ([3]; 1 μg /ml): 70.4%
- TNF-α Conc (pg/ml) ([3]; 1 μg /ml): 291.8*** pg/ml
- TNF-α % decrease with respect to LPS ([3]; 10 μg/ml): 71.2%
- TNF-α Conc (pg/ml) ([3]; 10 μg/ml): 283.1*** pg/ml
- IL-6 % decrease with respect to LPS ([4]; 0.5 μg /ml): 45.9%
- IL-6 Conc (pg/ml) ([4]; 0.5 μg /ml): 567.6** pg/ml
- IL-6 % decrease with respect to LPS ([4]; 1 μg /ml): 61.3%
- IL-6 Conc (pg/ml) ([4]; 1 μg /ml): 405.9*** pg/ml
- IL-6 % decrease with respect to LPS ([4]; 10 μg/ml): 72.3%
- IL-6 Conc (pg/ml) ([4]; 10 μg/ml): 291.2*** pg/ml
- IFN-γ % decrease with respect to TNF-α ([5]; 1 μM): 34.5%
- IFN-γ Conc (pg/ml) ([5]; 1 μM): 31.2*** pg/ml
- IFN-γ % decrease with respect to TNF-α ([5]; 10 μM): 25.4%
- IFN-γ Conc (pg/ml) ([5]; 10 μM): 35.5** pg/ml
- IFN-γ % decrease with respect to TNF-α ([5]; 25 μM): 31.2%
- IFN-γ Conc (pg/ml) ([5]; 25 μM): 32.8** pg/ml
- TSLP % decrease with respect to LPS + PMA ([6]; 1 μM): 46.4%
- TSLP Conc (pg/ml) ([6]; 1 μM): 66.6** pg/ml
- TSLP % decrease with respect to LPS + PMA ([6]; 10 μM): 41.9%
- TSLP Conc (pg/ml) ([6]; 10 μM): 72.1** pg/ml
- TSLP % decrease with respect to LPS + PMA ([6]; 25 μM): 44.7%
- TSLP Conc (pg/ml) ([6]; 25 μM): 68.7** pg/ml
- TARC % decrease with respect to TNF-α ([7]; 1 μM): 13.2%
- TARC Conc ([7]; 1 μM): 52.5 pg/mL
- TARC % decrease with respect to TNF-α ([7]; 10 μM): 13.5%
- TARC Conc ([7]; 10 μM): 52.3 pg/mL
- TARC % decrease with respect to TNF-α ([7]; 25 μM): 13.5%
- TARC Conc ([7]; 25 μM): 52.3 pg/mL
- IL-1-β % decrease with respect to LPS ([8]; 0.5 μg /ml): 53.6%
- IL-1-β Conc (pg/ml) ([8]; 0.5 μg /ml): 9.6* pg/ml
- IL-1-β % decrease with respect to LPS ([8]; 1 μg /ml): 44.6%
- IL-1-β Conc (pg/ml) ([8]; 1 μg /ml): 11.4* pg/ml
- IL-1-β % decrease with respect to LPS ([8]; 10 μg/ml): 39.0%
- IL-1-β Conc (pg/ml) ([8]; 10 μg/ml): 12.6* pg/ml
- TNF-α % decrease with respect to TNF-α ([9]; 1 μM): 17.6%
- TNF-α Conc ([9]; 1 μM): 17423.9 pg/mL
- TNF-α % decrease with respect to TNF-α ([9]; 10 μM): 31.2%
- TNF-α Conc ([9]; 10 μM): 14536.0 pg/mL
- TNF-α % decrease with respect to TNF-α ([9]; 25 μM): 4.7%
- TNF-α Conc ([9]; 25 μM): 20138.0 pg/mL

Compound: COc1cccc2c1C(=O)c1c(O)c3c(c(O)c1C2=O)C[C@@](O)(C(=O)CO)C[C@@H]3O[C@H]1C[C@H](N)[C@H](O)[C@H](C)O1 [Doxorubicin, Doxorubicin Hydrochloride, reference compound]
- cytotoxicity [10]: up to 40%
- % Increase with respect to untreated (LDH) ([11]; 0.1 μM): −4.78%
- LDH Activity (mU/ml) ([11]; 0.1 μM): 60.23 mU/ml
- % Increase with respect to untreated (LDH) ([11]; 1 μM): −16.43%
- LDH Activity (mU/ml) ([11]; 1 μM): 52.87 mU/ml
- % Increase with respect to untreated (LDH) ([11]; 10 μM): ***125.92%
- LDH Activity (mU/ml) ([11]; 10 μM): 142.92 mU/ml
- Green fluorescence intensity (RFU) ([12]; 0.1 μM): 11.5 ± 0.71 RFU
- Red fluorescence intensity (RFU) ([12]; 0.1 μM): ^#106.17 ± 15.32 ^ RFU
- Red fluorescence intensity/Green fluorescence intensity ([12]; 0.1 μM): 9.23
- Green fluorescence intensity (RFU) ([12]; 1 μM): 11.5 ± 0.71 RFU
- Red fluorescence intensity (RFU) ([12]; 1 μM): 93.25 ± 22.98 RFU
- Red fluorescence intensity/Green fluorescence intensity ([12]; 1 μM): 8.11
- Green fluorescence intensity (RFU) ([12]; 10 μM): 9.83 ± 4.48 RFU
- Red fluorescence intensity (RFU) ([12]; 10 μM): 49.83 ± 1.65 RFU
- Red fluorescence intensity/Green fluorescence intensity ([12]; 10 μM): 5.07
- cytotoxicity ([13]; 24 h): up to 48%
- cytotoxicity ([13]; 72 h): > 88%

Compound: CN(Cc1cnc2nc(N)nc(N)c2n1)c1ccc(C(=O)N[C@@H](CCC(=O)O)C(=O)O)cc1 [MTX, methotrexate]
- 50% Inhibition (concentration of MTX) ([14]; with IS181 10 μg/ml): 50% inhibition was still not achieved
- 50% Inhibition (concentration of MTX) ([14]; with IS181 50 μg/ml): 50% inhibition was still not achieved
- IC50 ([14]; read-out: 50% Inhibition (concentration of MTX), 72 h, MTX Alone): > 5000 nM
- IC50 ([14]; read-out: 50% Inhibition (concentration of MTX), 72 h, with IS181 10 μg/ml): > 5000 nM
- IC50 ([14]; read-out: 50% Inhibition (concentration of MTX), 72 h, with IS181 50 μg/ml): > 5000 nM
- IC50 ([14]; read-out: 50% Inhibition (concentration of MTX), 72 h, with IS181 500 μg/ml): 1000 to 5000 nM
- IC50 ([14]; read-out: 50% Inhibition (concentration of MTX), 72 h, with IS181 1000 μg/ml): 10 nM
- IC50 ([14]; read-out: 50% Inhibition (concentration of MTX), 72 h, with IS181 2000 μg/ml): < 10 nM
- IC50 ([14]; read-out: 50% Inhibition (concentration of MTX), 72 h, with IS181 5000 μg/ml): < 10 nM
- cytotoxicity at 72 h, 0.01 µM [15]: 12.3%
- cytotoxicity at 72 h, 0.1 µM [15]: 1.9%
- cytotoxicity at 72 h, 0.25 µM [15]: 21.3%
- cytotoxicity at 72 h, 0.5 µM [15]: 23.9%
- cytotoxicity at 72 h, 1 µM [15]: 27.7%
- cytotoxicity at 72 h, 5 µM [15]: 22%
